Results taken from patent US20030013643A1, “Prevention and treatment of streptococcal and staphylococcal infection” (priority 2000, published 2003).

What was measured:
GAS 950771 or GAS 282 = assay: GAS binding to and displacement from human keratinocyte monolayers; format: cell-based, Streptococcus pyogenes; conditions: 1 mg/ml
[1] = test system: wild-type GAS, strain 950771; assay: GAS translocation through polarized human keratinocyte monolayers; format: cell-based, Streptococcus pyogenes; conditions: pre-treated 30 minutes with 2 mg/ml, compared to untreated monolayers
Description: Human keratinocytes were cultured on 3.0 μm filters to allow polarization and establishment of functional intercellular tight junctions. Cells were infected as described previously with wild-type GAS, strain 950771. To assess the ability of exogenously added HA to inhibit the translocation of GAS through the keratinocyte monolayer, cells were pre-treated for 30 minutes with either 2 mg/ml of hyaluronic acid (HA) or another acidic polysaccharide, alginate (AL), at the same concentration. Aliquots of media from the lower chamber of infected keratinocyte monolayers were cultured on blood agar plates at 1 and 2 hours after inoculation with bacteria to assess the number of translocating bacteria. […] In contrast only 20% and 25% of the wild-type bacteria were blocked by AL at 1 and 2 hours, respectively.
GAS strains were 950771, an M-type 3 strain originally isolated from a child with necrotizing fasciitis, and 188, an isogenic acapsular mutant derived from 950771 (Ashbaugh, C. D., et al., (1998) J. Clin. Invest. 102, 550-560). Bacteria were cultured in Todd Hewitt broth (Difco, Sparks, Md.) to early exponential phase. For preparation of polarized keratinocyte monolayers, human squamous cell carcinoma cell line, SCC13, derived from cheek epidermis (Cline, P. R. & Rice, R. H. (1983) Cancer Res. 43, 3203-3207) was cultured to confluence in serum-free keratinocyte medium (Gibco BRL, Rockville, Md.) supplemented with 50 μg/ml bovine pituitary extract, 0.1 ng/ml epidermal growth factor and 0.3 mM calcium chloride (c-SFM). Certain experiments were performed also using cell monolayers prepared from OKP7 primary human keratinocytes (Crowe et al. (1991) Differentiation 48, 199-208). Keratinocytes were seeded at 5×10^5 cells per well onto polycarbonate Transwell membrane supports (12-well plates, 3.0 μm pore size; Costar, Corning, N.Y.) and cultured for 6-10 days at 37° C. with 5% CO2 in c-SFM, with daily medium changes. Once confluent, the integrity of the monolayer was assessed routinely by measuring permeability to sodium fluorescein (Tchao, R. (1988) Alternative Methods in Toxicology (eds. Goldberg, A. M.) 271-283 (Ann Liebert, N.Y.) and, in some experiments, by measuring transepithelial electrical resistance (McNamara, B. P., et al. (2001) J Clin Invest 107, 621-9).
Keratinocyte monolayers on Transwells were inoculated with GAS at a multiplicity of infection of 10 per keratinocyte. Monolayers were incubated at 37° C. with 5% CO2. The keratinocyte medium in the upper chamber was replaced two hours after adding GAS, and the Transwell inserts containing the keratinocytes were moved to new wells containing fresh medium every 2 hours to prevent overgrowth of translocated bacteria. Translocation was assessed by quantitative cultures of medium from the lower chamber at 2 hour intervals.
As a model of the movement of GAS from the pharyngeal mucosa or skin surface into underlying tissue, GAS translocation was studied in vitro through keratinocyte monolayers. Two hours after inoculation onto the surface of a confluent keratinocyte monolayer, wild-type GAS was detected in the culture medium below the membrane support, indicating migration of the organisms through the monolayer. At each of several intervals after inoculation, approximately 20 to 100 times as many GAS were recovered below monolayers inoculated with wild-type GAS compared to those inoculated with the acapsular mutant strain.(Figure 12a). […] Compared to wild-type GAS strain 950771, the efficiency of translocation was similar for wild-type GAS strains 87-282, a highly encapsulated M-type 18 strain, and for DLS003, a poorly encapsulated M-type 3 strain. Translocation of wild-type GAS was reduced by 78% at 1 hour in experiments in which the keratinocyte monolayers were pretreated with monoclonal antibody IM7.8.1 to block interaction of the GAS capsule with CD44 . […]

[2] = test system: Group A Streptococcus (GAS, strain 950771); assay: Bacterial binding to human keratinocyte monolayers, GAS; format: cell-based; conditions: 1 mg/ml pre-incubation; multiplicity of infection 10; 1 hour
Description: (§1) Keratinocyte monolayers were prepared as descibed above in Methods section and pre-incubated with 1 mg/ml alginate (AL, solid bars) or 1 mg/ml hyaluronic acid (HA, hatched bars) prior to surface inoculation (as described above in Methods) with either Group A Streptococcus (GAS, strain 950771), Group B Streptococcus (GBS, strain 515), Streptococcus pneumoniae (S. pneumo, type 6), or Staphylococcus aureus (S. aureus, type 8) at a multiplicity of infection of 10 bacteria per keratinocyte for 1 hour.

[3] = test system: Streptococcus pneumoniae (S. pneumo, type 6); assay: Bacterial binding to human keratinocyte monolayers, S. pneumoniae; format: cell-based; conditions: 1 mg/ml pre-incubation; multiplicity of infection 10; 1 hour
Description: as §1

[4] = test system: Staphylococcus aureus (S. aureus, type 8); assay: Bacterial binding to human keratinocyte monolayers, S. aureus; format: cell-based; conditions: 1 mg/ml pre-incubation; multiplicity of infection 10; 1 hour
Description: as §1

hyaluronic acid
inhibition of GAS binding to human cells (GAS 950771 or GAS 282; GAS 950771 or GAS 282, not strain specific): block GAS binding to human cells | displacement of bound bacteria (GAS 950771 or GAS 282; after 45 minutes): displaced bound GAS | blocking of translocating GAS ([1]; 1 hour after inoculation): 100% | blocking of translocating GAS ([1]; 2 hours after inoculation): 100% | inhibition of binding [2]: more than 80% | inhibition of binding [3]: more than 80% | inhibition of binding [4]: more than 80%
